For one data set, the target named is T1, recombinant human FAAH (Homo sapiens, UniProt O00519).
T1 sequence (O00519 1-579): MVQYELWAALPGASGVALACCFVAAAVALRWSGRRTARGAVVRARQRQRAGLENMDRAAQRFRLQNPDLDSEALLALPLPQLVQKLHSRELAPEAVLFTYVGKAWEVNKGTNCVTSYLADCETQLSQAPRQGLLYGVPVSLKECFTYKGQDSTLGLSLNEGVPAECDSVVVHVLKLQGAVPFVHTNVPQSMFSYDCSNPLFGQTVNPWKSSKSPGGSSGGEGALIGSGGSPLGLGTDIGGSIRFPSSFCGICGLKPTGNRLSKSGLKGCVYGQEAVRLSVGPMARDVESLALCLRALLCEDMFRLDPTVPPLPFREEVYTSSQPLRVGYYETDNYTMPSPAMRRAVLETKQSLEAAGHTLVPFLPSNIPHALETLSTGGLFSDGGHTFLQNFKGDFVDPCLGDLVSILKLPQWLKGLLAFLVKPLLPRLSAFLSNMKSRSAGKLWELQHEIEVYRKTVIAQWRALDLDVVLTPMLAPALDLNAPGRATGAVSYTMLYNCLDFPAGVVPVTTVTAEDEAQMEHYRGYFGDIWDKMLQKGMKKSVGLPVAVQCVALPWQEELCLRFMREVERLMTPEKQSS
Kind of data set: FAAH inhibition, 30 min preincubation, AMC substrate. It is filed as biochemical. As to conditions: 30 min preincubation with recombinant human FAAH and AMC; read-out: Apparent IC50s.

A further data set addresses T2, FAAH (Mus musculus, UniProt O08914).
T2 construct: from tissue; host or cells: living mice; plasma, liver and brain sampled
T2 sequence (O08914 1-579): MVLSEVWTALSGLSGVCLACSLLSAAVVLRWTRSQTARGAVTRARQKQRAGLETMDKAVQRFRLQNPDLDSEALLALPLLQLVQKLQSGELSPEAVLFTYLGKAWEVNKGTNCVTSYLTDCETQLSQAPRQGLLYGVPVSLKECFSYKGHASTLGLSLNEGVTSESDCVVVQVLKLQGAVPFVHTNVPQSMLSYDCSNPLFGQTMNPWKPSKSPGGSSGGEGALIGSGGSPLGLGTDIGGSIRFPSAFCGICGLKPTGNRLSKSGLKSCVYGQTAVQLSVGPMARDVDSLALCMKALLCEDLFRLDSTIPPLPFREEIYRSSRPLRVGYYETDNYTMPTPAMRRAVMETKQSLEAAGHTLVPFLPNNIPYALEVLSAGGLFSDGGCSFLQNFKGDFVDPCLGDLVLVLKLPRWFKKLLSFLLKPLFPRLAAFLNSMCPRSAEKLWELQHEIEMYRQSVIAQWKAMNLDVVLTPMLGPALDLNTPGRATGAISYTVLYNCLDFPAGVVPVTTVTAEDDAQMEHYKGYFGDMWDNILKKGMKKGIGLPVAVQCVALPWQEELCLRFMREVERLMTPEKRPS
Kind of data set: tissue distribution after co-dosing prodrug ABX-002 with or without PFI or GFI. Type of data set: in vivo, mice. The note with it: for Distribution: peripheral or global FAAH inhibitor. As for the experimental part: The ability of globally-penetrant and peripherally-restricted FAAH inhibitors (GFI & PFI, respectively) to alter distribution of ABX-002 and ABX-002A was assessed.
Table 5 depicts the inhibition of active metabolite (LL-650177 or PF-044578454) in AUC in the plasma, liver, and brain after prodrug (ABX-002) co-dosing. Tissue distribution studies in mice confirm global & peripheral inhibition of FAAH.

Molecules are shown by their SMILES.

Consider `NC(=O)c1cccc(-c2cc(OC(=O)NC3CCCCC3)ccc2O)c1` [URB937], for which the IC50 on recombinant human FAAH came to 69 nM. The Distribution result at FAAH was “Peripheral”.

On to `O=C(Nc1cccnn1)N1CCC(=Cc2cccc(Oc3ccc(C(F)(F)F)cn3)c2)CC1` [PF-04457845], for which the IC50 at recombinant human FAAH turned out to be 3 nM. For the same compound, the “inhibition of active metabolite AUC, Brain” value at FAAH (ABX-002A AUC after ABX-002 co-dosing, mice, brain) was found to be 83%. In addition, the “inhibition of active metabolite AUC, Liver” value at FAAH (ABX-002A AUC after ABX-002 co-dosing, mice, liver) is 94%. Further, the “inhibition of active metabolite AUC, Plasma” value on FAAH (ABX-002A AUC after ABX-002 co-dosing, mice, plasma) stood at 94%. Besides, the Distribution result at FAAH was “Global”.

The record behind these values is US12637413B2, “Fatty acid amide hydrolase (FAAH) cleavable prodrugs of thyromimetics and combination with peripherally restricted FAAH inhibitors” (Autobahn Therapeutics, Inc., priority 2021, dated 2026).
